# What was measured:
# [1] = Study A16 Part 1: PK of single ascending oral doses of fospropofol disodium (200 to 2000 mg), fasted healthy adults; format: in vivo, human; conditions: for AUC(0-inf) / Cmax / Tmax / AUC(0-t) / half-life: both sexes, human, plasma
# Experimental: Part 1 of Study A16 was a double-blind, randomized, placebo-controlled study to investigate the safety-tolerability and PK of oral administration of single ascending doses of fospropofol disodium to healthy adult male and female volunteers.
# Subjects were healthy adults (age 18-55 years inclusive, BMI 18-29.9 kg/m^2). Separate cohorts of 12 subjects each were randomized to receive fospropofol disodium at doses of 200, 400, 800, 1000, 1200, 1600, or 2000 mg (n=10 per cohort) or matching placebo (n=2 per cohort).
# Subjects were admitted to the clinical unit for an overnight fast (Day −1), administered study drug on Day 1, and remained in the clinical unit until Day 2.
# Fospropofol disodium was formulated as powder in an HPMC capsule, each capsule containing 200 mg of fospropofol disodium (weight adjusted for water content). Placebo was administered as an appropriate number of matching capsules.
# Based on PK results from the early cohorts, sampling times were optimized beginning with Cohort 3 (800 mg) to preclose, 5, 10, 15, 20, 25, 30, 37, and 45, minutes and 1, 2, 4, 6, and 9 hours after closing.
# [2] = Study No. 15-4 toxicokinetics of fospropofol and propofol in plasma; format: in vivo, Beagle dogs; conditions: for Propofol AUC0-6hr increase after 14 days compared with Day 1 / Propofol Cmax increase after 14 days compared with Day 1: 160-mg/kg
# Experimental: The purpose of Study No. 15-4 (GLP) was to determine the potential toxicity of fospropofol in Beagle dogs when administered once daily by oral gavage for 14 days. […] Because the treatment-related clinical observations (consistent with the expected transient sedative actions of fospropofol) and effects on hematology and clinical chemistry parameters were considered nonadverse, the NOAEL was determined to be 160 mg/kg/day (3200 mg/m^2/day).
# [3] = 200, 400, 800, and 1000 mg cohorts
# [4] = oral fospropofol disodium 200 mg, mean
# [5] = oral fospropofol disodium 400 mg, mean
# [6] = oral fospropofol disodium 800 mg, mean
# [7] = oral fospropofol disodium 1000 mg, mean, n = 9
# [8] = oral fospropofol disodium 1600 mg, mean
# [9] = oral fospropofol disodium 2000 mg, mean
compound,measurement,setting,value
"CC(C)c1cccc(C(C)C)c1O [propofol, 2,6-diisopropylphenol]",Dose proportionality of propofol AUC0-2h and Cmax,[1]; 200 mg to 2000 mg,close proportional
same,Dose proportionality of propofol AUC0-T and AUC0-∞,[1]; 200 mg to 2000 mg,slightly greater than close-proportional
same,Highest observed propofol Cmax relative to the mean Cmax of the cohort,[1]; [3],greater than 2 times
same,Highest observed propofol Cmax: standard deviations above the cohort mean,[1]; [3],greater than 2 standard deviations
same,Dose proportionality of propofol exposure (both Cmax and AUC),"[1]; 200 to 2000 mg, preliminary PK data",approximately close proportional
same,Highest observed propofol Cmax relative to mean Cmax,[1]; 800-mg cohort,approximately 3.7 fold
same,AUC(0-inf),"[1]; oral, 200 mg, Propofol AUC0-inf (arithmetic mean, n=10), after a single 200-mg capsule",0.118 µg·h/mL
same,AUC(0-inf),"[1]; oral, 200 mg, Propofol AUC0-inf (geometric mean, n=10), after a single 200-mg capsule",0.112 µg·h/mL
same,Cmax,"[1]; oral, 200 mg, Propofol Cmax (arithmetic mean, n=10), after a single 200-mg capsule",0.0694 µg/mL
same,Cmax,"[1]; oral, 200 mg, Propofol Cmax (geometric mean, n=10), after a single 200-mg capsule",0.0617 µg/mL
same,Tmax,"[1]; oral, 200 mg, Propofol median Tmax, 200-mg dose",30 min
same,Cmax,"[1]; oral, 800 mg, Highest observed propofol Cmax, 800-mg cohort",1.35 µg/mL
same,Cmax,"[1]; oral, 800 mg, Mean propofol Cmax, 800 mg cohort",0.362 µg/mL
same,AUC(0-inf),"[1]; oral, 800 mg, Propofol AUC0-inf (arithmetic mean, n=10), single dose of 800 mg (four 200 mg capsules)",0.559 µg·h/mL
same,Cmax,"[1]; oral, 800 mg, Propofol Cmax (arithmetic mean, n=10), single dose of 800 mg (four 200 mg capsules)",0.362 µg/mL
same,Tmax,"[1]; oral, 1200 mg, Propofol Tmax (median), fasting conditions",37 min
same,Tmax,"[1]; oral, 2000 mg, Propofol median Tmax, doses of 1600 or 2000 mg",45 min
same,AUC(0-inf),"[1]; po, 200 mg, Propofol AUC0-∞, oral fospropofol disodium 200 mg, mean",0.118 µg·h/mL
same,Cmax,"[1]; po, 200 mg, Propofol Cmax Maximum, oral fospropofol disodium 200 mg",0.191 µg/mL
same,Cmax,"[1]; po, 200 mg, Propofol Cmax Mean (SD), oral fospropofol disodium 200 mg",0.069 µg/mL
same,Cmax,"[1]; po, 200 mg, Propofol Cmax Minimum, oral fospropofol disodium 200 mg",0.0351 µg/mL
same,Cmax,"[1]; po, 200 mg, Propofol Cmax, oral fospropofol disodium 200 mg, mean",0.069 µg/mL
same,Tmax,"[1]; po, 200 mg, Propofol Tmax, oral fospropofol disodium 200 mg, median",30 min
same,AUC(0-inf),"[1]; po, 400 mg, Propofol AUC0-∞, oral fospropofol disodium 400 mg, mean",0.298 µg·h/mL
same,Cmax,"[1]; po, 400 mg, Propofol Cmax Maximum, oral fospropofol disodium 400 mg",0.499 µg/mL
same,Cmax,"[1]; po, 400 mg, Propofol Cmax Mean (SD), oral fospropofol disodium 400 mg",0.201 µg/mL
same,Cmax,"[1]; po, 400 mg, Propofol Cmax Minimum, oral fospropofol disodium 400 mg",0.0335 µg/mL
same,Cmax,"[1]; po, 400 mg, Propofol Cmax, oral fospropofol disodium 400 mg, mean",0.201 µg/mL
same,Tmax,"[1]; po, 400 mg, Propofol Tmax, oral fospropofol disodium 400 mg, median",30 min
same,AUC(0-inf),"[1]; po, 800 mg, Propofol AUC0-∞, oral fospropofol disodium 800 mg, mean",0.577 µg·h/mL
same,Cmax,"[1]; po, 800 mg, Propofol Cmax Maximum, oral fospropofol disodium 800 mg",1.35 µg/mL
same,Cmax,"[1]; po, 800 mg, Propofol Cmax Mean (SD), oral fospropofol disodium 800 mg",0.362 µg/mL
same,Cmax,"[1]; po, 800 mg, Propofol Cmax Minimum, oral fospropofol disodium 800 mg",0.127 µg/mL
same,Cmax,"[1]; po, 800 mg, Propofol Cmax, oral fospropofol disodium 800 mg, mean",0.362 µg/mL
same,Tmax,"[1]; po, 800 mg, Propofol Tmax, oral fospropofol disodium 800 mg, median",37.2 min
same,AUC(0-inf),"[1]; po, 1000 mg, Propofol AUC0-∞, oral fospropofol disodium 1000 mg, mean, n = 9",0.887 µg·h/mL
same,Cmax,"[1]; po, 1000 mg, Propofol Cmax Maximum, oral fospropofol disodium 1000 mg, n = 9",0.681 µg/mL
same,Cmax,"[1]; po, 1000 mg, Propofol Cmax Mean (SD), oral fospropofol disodium 1000 mg, n = 9",0.403 µg/mL
same,Cmax,"[1]; po, 1000 mg, Propofol Cmax Minimum, oral fospropofol disodium 1000 mg, n = 9",0.267 µg/mL
same,Cmax,"[1]; po, 1000 mg, Propofol Cmax, oral fospropofol disodium 1000 mg, mean, n = 9",0.403 µg/mL
same,Tmax,"[1]; po, 1000 mg, Propofol Tmax, oral fospropofol disodium 1000 mg, median, n = 9",45 min
same,Cmax,"[1]; po, 1200 mg, Propofol Cmax Maximum, oral fospropofol disodium 1200 mg",1.19 µg/mL
same,Cmax,"[1]; po, 1200 mg, Propofol Cmax Mean (SD), oral fospropofol disodium 1200 mg",0.641 µg/mL
same,Cmax,"[1]; po, 1200 mg, Propofol Cmax Minimum, oral fospropofol disodium 1200 mg",0.193 µg/mL
same,Cmax,"[1]; po, 1600 mg, Propofol Cmax Maximum, oral fospropofol disodium 1600 mg",1.17 µg/mL
same,Cmax,"[1]; po, 1600 mg, Propofol Cmax Mean (SD), oral fospropofol disodium 1600 mg",0.748 µg/mL
same,Cmax,"[1]; po, 1600 mg, Propofol Cmax Minimum, oral fospropofol disodium 1600 mg",0.229 µg/mL
same,AUC(0-inf),"[1]; po, 2000 mg, Propofol AUC0-∞, oral fospropofol disodium 2000 mg, mean",2.25 µg·h/mL
same,Cmax,"[1]; po, 2000 mg, Propofol Cmax Maximum, oral fospropofol disodium 2000 mg",1.62 µg/mL
same,Cmax,"[1]; po, 2000 mg, Propofol Cmax Mean (SD), oral fospropofol disodium 2000 mg",0.806 µg/mL
same,Cmax,"[1]; po, 2000 mg, Propofol Cmax Minimum, oral fospropofol disodium 2000 mg",0.2 µg/mL
same,Cmax,"[1]; po, 2000 mg, Propofol Cmax, oral fospropofol disodium 2000 mg, mean",0.806 µg/mL
same,Tmax,"[1]; po, 2000 mg, Propofol Tmax, oral fospropofol disodium 2000 mg, median",45 min
same,AUC(0-t),[1]; [4],0.103 µg·h/mL
same,half-life,[1]; [4],228 min
same,AUC(0-t),[1]; [5],0.276 µg·h/mL
same,half-life,[1]; [5],176 min
same,AUC(0-t),[1]; [6],0.551 µg·h/mL
same,half-life,[1]; [6],116 min
same,AUC(0-t),[1]; [7],0.846 µg·h/mL
same,half-life,[1]; [7],121 min
same,half-life,[1]; [8],177 min
same,AUC(0-t),[1]; [9],2 µg·h/mL
same,half-life,[1]; [9],118 min
same,Propofol concentration relative to Cmax,[1]; by 4 hours after dosing,less than 25 % of Cmax
same,Propofol Cmax CV,[1]; oral fospropofol disodium 200 mg,64%
same,Propofol CL/F,[1]; [4],1889 L/h
same,Propofol Cmax CV,[1]; oral fospropofol disodium 400 mg,63%
same,Propofol CL/F,[1]; [5],1658 L/h
same,Propofol Cmax CV,[1]; oral fospropofol disodium 800 mg,99%
same,Propofol CL/F,[1]; [6],1561 L/h
same,Propofol CL/F,[1]; [7],1213 L/h
same,Propofol Cmax CV,"[1]; oral fospropofol disodium 1000 mg, n = 9",30%
same,Propofol Cmax CV,[1]; oral fospropofol disodium 1200 mg,46%
same,Propofol CL/F,"[1]; oral fospropofol disodium 1200 mg, Fasted (Cohort 5), n = 10, mean",1260 L/h
same,Propofol CL/F,"[1]; oral fospropofol disodium 1200 mg, mean",1260 L/h
same,Propofol Cmax CV,[1]; oral fospropofol disodium 1600 mg,44%
same,Propofol CL/F,[1]; [8],1182 L/h
same,Propofol Cmax CV,[1]; oral fospropofol disodium 2000 mg,51%
same,Propofol CL/F,[1]; [9],933 L/h
same,Propofol AUC0-6hr increase after 14 days compared with Day 1,[2]; females,over 5 fold
same,Propofol Cmax increase after 14 days compared with Day 1,[2]; females,~3 fold
same,Propofol AUC0-6hr increase after 14 days compared with Day 1,[2]; males,over 2 fold
same,Propofol Cmax increase after 14 days compared with Day 1,[2]; males,about 7 fold
same,Tmax,"[2]; Beagle, dog, plasma, po, Propofol Tmax, most groups",5 to 60 min
same,Increase of propofol Cmax and AUC0-6hr with dose,"[2]; Day 1, both sexes",close proportional
same,Increase of propofol Cmax and AUC0-6hr with dose,"[2]; Day 14, both sexes",more than close proportional
same,half-life,"[2]; female, Beagle, dog, plasma, po, females",30 to 78 min
same,half-life,"[2]; male, Beagle, dog, plasma, po, males",48 to 108 min

# Source: patent publication US12377110B2, “Fospropofol methods and compositions” (Epalex Corporation, priority 2019, dated 2025)
